Experimental data: ChEMBL document CHEMBL1144706, “Antineoplastic agents. 558. Ampelocissus sp. cancer cell growth inhibitory constituents” (2008)
Converted amounts (≈) assume the structure as drawn.

Legend:
Assay type in all cases: functional
P388 = assay: Growth inhibition of mouse P388 cells
BXPC-3 = assay: Growth inhibition of human BXPC3 cells
MCF7 = assay: Growth inhibition of human MCF7 cells
SF-268 = assay: Growth inhibition of human SF268 cells
NCI-H460 = assay: Growth inhibition of human NCI-H460 cells
KM-20L2 = assay: Growth inhibition of human KM20L2 cells
DU-145 = assay: Growth inhibition of human DU145 cells

Row | SMILES | GI50 (P388) [µg/mL] | GI50 (BXPC-3) [µg/mL] | GI50 (MCF7) [µg/mL] | GI50 (SF-268) [µg/mL] | GI50 (NCI-H460) [µg/mL] | GI50 (KM-20L2) [µg/mL] | GI50 (DU-145) [µg/mL]
1 | CCCCCCCCCCCC[C@@H](O)[C@H]1CC[C@H]([C@@H](C[C@H](O)CCCCCCCCCCCCC2=CC(C)OC2=O)OC(C)=O)O1 (some centres undefined) | 0.014 (≈ 0.0215 µM) | 7.3 (≈ 11.2 µM) | 0.12 (≈ 0.184 µM) | 11.9 (≈ 18.3 µM) | 0.2 (≈ 0.307 µM) | 0.034 (≈ 0.0522 µM) | 0.0065 (≈ 0.00998 µM)
2 | Cc1c(O)c(C=O)c(O)c(C(=O)CCc2ccccc2)c1O |  | 0.3 (≈ 0.999 µM) | 0.3 (≈ 0.999 µM) | 0.55 (≈ 1.83 µM) | 0.52 (≈ 1.73 µM) | 0.36 (≈ 1.2 µM) | 0.33 (≈ 1.1 µM)
3 | CCCCCCCCCCCC[C@@H](O)[C@H]1CC[C@H]([C@@H](C[C@H](O)CCCCCCCCCC(O)CCC2=CC(C)OC2=O)OC(C)=O)O1 (some centres undefined) [UVARIBONIN] |  | 1.3 (≈ 1.95 µM) | 0.0022 (≈ 0.0033 µM) | 1.4 (≈ 2.1 µM) | 1 (≈ 1.5 µM) | 0.0013 (≈ 0.00195 µM) | 0.0093 (≈ 0.0139 µM)
